The record followed here is patent US12447153B2, “HER2 mutation inhibitors” (Array BioPharma Inc., priority 2021, dated 2025).

Structures are written as SMILES. pIC50: −log10 of the molar value.

Data set [1] has as its target EGFR (Homo sapiens (Human), UniProt P00533). The data set is described as follows: ErbB Enzyme Assay (HTRF KinEASE-TK), Assay 3. The class given is biochemical. The conditions noted are these: EGFR enzyme. In general terms: TR-FRET usually uses a lanthanide donor and a delayed reading to cut background.
The target of data set [2] is ErbB2 with Exon 20 YVMA insertion (HER2-YVMA) (Homo sapiens (Human), UniProt P04626, INS775YVMA). The data set is described as follows: Cellular Phosphorylation Assay, Assay 4 (constitutive ErbB2 phosphorylation, NIH 3T3 cells). It counts as cell-based. The following applies: ErbB2 YVMA phosphorylation.
Data set [3] concerns the target ErbB2 WT (Homo sapiens (Human), UniProt P04626). The data set is described as follows: ErbB Enzyme Assay (HTRF KinEASE-TK), Assay 2. The class given is biochemical. The conditions noted are these: ErbB2 WT enzyme.
Data set [4] deals with BCRP. Nature of the data set: BCRP MDCKII efflux assay (Assay 7). The following applies: dog; efflux ratio Papp(B-A)/Papp(A-B), BCRP MDCKII cells; read-out: Assay 7 Pe Ratio. It counts as in vitro ADME. The method, then:
(§1) Assay conditions included with and without the BCRP-specific inhibitor, KO143, at a concentration of 0.3 μM to ascertain the contribution of BCRP to the efflux value of the test compound.
(§2) Final organic concentration in the assay was 1%.

Data set [5] concerns the target EGFR wild type (EGFR WT) (Homo sapiens (Human), UniProt P00533). The data set is described as follows: Cellular Phosphorylation Assay, Assay 5 (EGF-stimulated EGFR phosphorylation, NIH 3T3 cells). The class given is cell-based. The conditions noted are these: EGF-stimulated EGFR WT phosphorylation.
Data set [6] addresses MDR1 (P-gp) (Homo sapiens (Human), UniProt P08183). The data set is described as follows: in vitro. The conditions noted are these: pig, LLC-PK1.
Method: (§3) Both LLC-PK1 and MDR1 transfected LLC-PK1 cells were cultured and plated according to manufacturer's recommendations with the exception that the passage media contained only 2% fetal bovine serum so as to extend passage time out to seven days.
(§4) Both positive and negative controls were used to assess functionality of P-gp or BCRP efflux in the assays. Stock solutions for assay controls and the test article were prepared in DMSO for final test concentrations of 10 μM and 1 μM, respectively. Final organic concentration in the assay was 1%. All dosing solutions contained 10 μM lucifer yellow to monitor LLC PK1 or MDCKII cell monolayer integrity.
(§5) For the apical to basolateral determination (A to B), 75 μL of the test article in transport buffer were added to the apical side of the individual transwells and 250 μL of basolateral media, without compound or lucifer yellow, were added to each well. For the basolateral to apical determination (B to A), 250 μL of test article in transport buffer were added to each well and 75 μL transport buffer, without compound or lucifer yellow, were added to each transwell. All tests were performed in triplicate, and each compound was tested for both apical to basolateral and basolateral to apical transport. The plates were incubated for 2 hours on a Lab-Line Instruments Titer Orbital Shaker (VWR, West Chester, PA) at 50 rpm and 37° C. with 5% CO2. All culture plates were removed from the incubator, 50 μL of media were removed from the apical and basolateral portion of each well, and added to 150 μL of 1 μM labetalol in 2:1 acetonitrile (ACN): H2O, v/v.
(§6) The plates were read using a Molecular Devices (Sunnyvale, CA) Gemini Fluorometer to evaluate the lucifer yellow concentrations at excitation/emission wavelengths of 425/535 nm. These values were accepted when found to be below 2% for apical to basolateral and 5% basolateral to apical flux across the MDR1-transfected LLC-PK1 or BCRP-transfected MDCKII cell monolayers. The plates were sealed, and the contents of each well analyzed by LC MS/MS. The compound concentrations were determined from the ratio of the peak areas of the compound to the internal standard (labetalol) in comparison to the dosing solution.
(§7) The LC-MS/MS system was comprised of an HTS-PAL autosampler (Leap Technologies, Carrboro, NC), an HP1200 HPLC (Agilent, Palo Alto, CA), and a MDS Sciex 4000 Q Trap system (Applied Biosystems, Foster City, CA). […] The total run time, including re-equilibration, for a single injection was 1.2 minutes. Mass spectrometric detection of the analytes was accomplished using the ion spray positive mode. Analyte responses were measured by multiple reaction monitoring (MRM) of transitions unique to each compound (the protonated precursor ion and selected product ions for each test article and m/z 329 to m/z 162 for labetalol, the internal standard).
(§8) An efflux ratio is calculated from the mean apical to basolateral (A-B) Papp data and basolateral to apical (B-A) Papp data: Efflux ratio=Papp(B−A)/Papp(A−B)
In data set [7] the target is MDR1 (P-gp) transfected LLC-PK1 cells (Homo sapiens (Human), UniProt P08183).
Method: as §3, §4, §5, §6, §7, §8
Data set [8] has as its target BCRP transfected MDCKII cells (Homo sapiens (Human), UniProt Q9UNQ0). The data set is described as follows: BCRP MDCKII efflux assay (Assay 7). The class given is in vitro ADME. The following applies: efflux ratio Papp(B-A)/Papp(A-B). The procedure:
as §1, §2

Sequence of ErbB2 WT (P04626 23-1255): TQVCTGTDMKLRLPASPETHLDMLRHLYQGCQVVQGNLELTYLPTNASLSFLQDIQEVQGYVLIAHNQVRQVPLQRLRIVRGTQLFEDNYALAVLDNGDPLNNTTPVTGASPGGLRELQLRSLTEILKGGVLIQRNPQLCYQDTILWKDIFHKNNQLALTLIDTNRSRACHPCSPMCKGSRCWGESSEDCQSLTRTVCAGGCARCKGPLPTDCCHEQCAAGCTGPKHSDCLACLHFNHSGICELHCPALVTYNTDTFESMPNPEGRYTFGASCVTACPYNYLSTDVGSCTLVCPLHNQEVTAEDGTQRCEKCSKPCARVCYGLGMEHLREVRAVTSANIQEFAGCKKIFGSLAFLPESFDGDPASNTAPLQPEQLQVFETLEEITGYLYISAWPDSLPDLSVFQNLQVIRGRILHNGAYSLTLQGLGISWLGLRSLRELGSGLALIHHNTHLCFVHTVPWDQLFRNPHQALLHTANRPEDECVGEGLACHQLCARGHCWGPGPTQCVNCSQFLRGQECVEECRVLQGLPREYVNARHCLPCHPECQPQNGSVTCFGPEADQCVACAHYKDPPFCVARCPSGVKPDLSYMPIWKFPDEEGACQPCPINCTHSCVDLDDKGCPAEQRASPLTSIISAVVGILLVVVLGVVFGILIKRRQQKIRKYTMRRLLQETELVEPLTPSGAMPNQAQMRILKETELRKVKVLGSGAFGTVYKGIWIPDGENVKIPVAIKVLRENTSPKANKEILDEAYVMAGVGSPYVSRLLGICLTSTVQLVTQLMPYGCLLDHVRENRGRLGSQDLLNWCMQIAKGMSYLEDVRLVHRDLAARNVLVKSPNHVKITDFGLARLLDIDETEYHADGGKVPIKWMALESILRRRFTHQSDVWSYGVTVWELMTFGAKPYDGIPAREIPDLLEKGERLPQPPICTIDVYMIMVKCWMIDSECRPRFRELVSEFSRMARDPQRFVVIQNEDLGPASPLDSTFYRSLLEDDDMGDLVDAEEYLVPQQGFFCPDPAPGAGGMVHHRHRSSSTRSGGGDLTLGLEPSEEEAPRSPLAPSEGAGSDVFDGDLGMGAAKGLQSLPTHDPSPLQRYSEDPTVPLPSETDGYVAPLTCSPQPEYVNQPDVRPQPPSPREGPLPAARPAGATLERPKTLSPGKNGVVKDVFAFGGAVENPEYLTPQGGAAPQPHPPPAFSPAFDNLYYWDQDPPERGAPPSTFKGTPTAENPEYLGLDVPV
Sequence of EGFR wild type (EGFR WT) (P00533 25-1210): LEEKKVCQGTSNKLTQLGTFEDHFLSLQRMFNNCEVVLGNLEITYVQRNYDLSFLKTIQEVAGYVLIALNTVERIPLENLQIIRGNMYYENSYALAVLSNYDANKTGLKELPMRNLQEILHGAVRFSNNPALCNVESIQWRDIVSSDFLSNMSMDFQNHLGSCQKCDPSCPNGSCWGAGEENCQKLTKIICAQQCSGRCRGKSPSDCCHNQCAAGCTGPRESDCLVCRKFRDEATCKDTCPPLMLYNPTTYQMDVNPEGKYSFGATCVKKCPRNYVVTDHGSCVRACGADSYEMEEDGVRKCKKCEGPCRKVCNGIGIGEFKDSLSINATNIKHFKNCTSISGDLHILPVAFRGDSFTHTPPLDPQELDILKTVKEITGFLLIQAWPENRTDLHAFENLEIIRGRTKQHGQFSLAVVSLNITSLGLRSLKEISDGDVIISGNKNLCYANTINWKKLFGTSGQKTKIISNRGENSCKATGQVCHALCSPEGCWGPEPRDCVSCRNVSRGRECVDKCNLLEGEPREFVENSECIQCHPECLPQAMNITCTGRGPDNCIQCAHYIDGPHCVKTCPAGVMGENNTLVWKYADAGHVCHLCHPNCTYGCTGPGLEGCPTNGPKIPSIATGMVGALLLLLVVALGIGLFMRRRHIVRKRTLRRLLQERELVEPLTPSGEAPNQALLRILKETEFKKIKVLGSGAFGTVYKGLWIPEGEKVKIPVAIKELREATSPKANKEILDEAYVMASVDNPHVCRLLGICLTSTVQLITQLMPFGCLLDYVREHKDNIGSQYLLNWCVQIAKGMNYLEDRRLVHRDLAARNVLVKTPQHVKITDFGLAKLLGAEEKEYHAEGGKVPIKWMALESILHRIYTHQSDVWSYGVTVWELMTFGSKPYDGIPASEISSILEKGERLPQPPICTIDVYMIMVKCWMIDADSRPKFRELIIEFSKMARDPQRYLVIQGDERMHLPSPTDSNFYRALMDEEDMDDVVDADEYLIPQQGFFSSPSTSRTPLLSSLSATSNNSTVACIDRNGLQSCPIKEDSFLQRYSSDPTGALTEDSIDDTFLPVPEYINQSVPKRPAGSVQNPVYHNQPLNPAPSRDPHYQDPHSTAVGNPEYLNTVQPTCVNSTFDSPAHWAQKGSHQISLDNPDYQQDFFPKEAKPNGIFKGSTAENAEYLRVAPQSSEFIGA
Sequence of EGFR (P00533 25-1210): as above
Sequence of ErbB2 with Exon 20 YVMA insertion (HER2-YVMA) (P04626 other isoform, or with tags, fused parts or gaps ins YVMA behind 775): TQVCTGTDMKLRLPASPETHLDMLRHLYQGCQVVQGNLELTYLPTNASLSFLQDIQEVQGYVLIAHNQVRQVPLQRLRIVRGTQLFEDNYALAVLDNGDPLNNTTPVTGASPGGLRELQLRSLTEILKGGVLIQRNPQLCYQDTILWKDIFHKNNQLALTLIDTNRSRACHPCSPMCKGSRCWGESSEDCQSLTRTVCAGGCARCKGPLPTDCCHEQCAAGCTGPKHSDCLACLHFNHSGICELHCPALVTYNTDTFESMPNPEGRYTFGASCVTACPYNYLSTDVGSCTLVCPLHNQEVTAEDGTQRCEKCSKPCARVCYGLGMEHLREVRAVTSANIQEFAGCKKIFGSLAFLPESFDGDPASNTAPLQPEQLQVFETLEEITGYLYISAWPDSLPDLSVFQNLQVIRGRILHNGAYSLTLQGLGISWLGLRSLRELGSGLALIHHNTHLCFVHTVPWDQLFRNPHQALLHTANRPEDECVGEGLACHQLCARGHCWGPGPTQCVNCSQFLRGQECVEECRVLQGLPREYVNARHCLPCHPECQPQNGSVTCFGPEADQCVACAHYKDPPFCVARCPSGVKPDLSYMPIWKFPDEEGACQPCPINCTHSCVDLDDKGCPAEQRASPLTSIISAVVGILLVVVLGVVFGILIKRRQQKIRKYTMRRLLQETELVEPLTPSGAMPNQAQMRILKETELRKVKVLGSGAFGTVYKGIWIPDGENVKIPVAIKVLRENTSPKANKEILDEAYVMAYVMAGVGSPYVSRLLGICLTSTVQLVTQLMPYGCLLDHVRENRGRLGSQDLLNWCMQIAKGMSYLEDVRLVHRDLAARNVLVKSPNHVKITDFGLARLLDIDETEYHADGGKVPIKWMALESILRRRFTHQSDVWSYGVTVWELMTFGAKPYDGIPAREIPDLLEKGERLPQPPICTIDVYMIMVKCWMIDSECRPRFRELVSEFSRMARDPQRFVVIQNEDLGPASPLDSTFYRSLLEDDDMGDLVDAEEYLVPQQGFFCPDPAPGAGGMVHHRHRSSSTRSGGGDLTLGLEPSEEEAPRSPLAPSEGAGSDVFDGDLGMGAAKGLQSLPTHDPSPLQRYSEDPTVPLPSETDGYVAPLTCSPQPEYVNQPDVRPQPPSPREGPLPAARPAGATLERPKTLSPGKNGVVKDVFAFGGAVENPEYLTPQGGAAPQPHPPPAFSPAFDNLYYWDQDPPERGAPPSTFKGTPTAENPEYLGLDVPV

Take `C=CC(=O)N1C[C@@H]2C[C@H]1C[C@H]2c1ccc2ncnc(Nc3ccc(Oc4ccc5c(c4)ncn5C)c(C)c3F)c2n1` (racemic) [Example 203, rac-1-((1S,4R,5R)-5-(4-((2-fluoro-3-methyl-4-((1-methyl-1H-benzo[d]imidazol-5-yl)oxy)phenyl)amino)pyrido[3,2-d]pyrimidin-6-yl)-2-azabicyclo[2.2.1]heptan-2-yl)prop-2-en-1-one]: the pIC50 in data set [1] is 6.40; in data set [2] it was 7.78; in data set [3], 7.88; in data set [5], 5.84. Besides, the efflux ratio at 2 h, 1 µM stood at 0.6 in data set [4] and 1.1 in data set [6].
For `C=CC(=O)N1CCC[C@@H](c2ccc3ncnc(Nc4ccc(Oc5ccc6c(c5)ncn6C)c(C)c4F)c3n2)C1` (racemic) [Example 144, rac-(R)-1-(3-(4-((2-fluoro-3-methyl-4-((1-methyl-1H-benzo[d]imidazol-5-yl)oxy)phenyl)amino)pyrido[3,2-d]pyrimidin-6-yl)piperidin-1-yl)prop-2-en-1-one], the pIC50 was 6.19 in data set [1], 7.93 in data set [2], 7.60 in data set [3] and 5.97 in data set [5]. Further, the efflux ratio at 2 h, 1 µM was determined as 0.6 in data set [4] and 1.2 in data set [6].
As to `C=CC(=O)N1[C@@H]2CC[C@H]1C[C@@H](c1ccc3ncnc(Nc4ccc(Oc5cnc6c(c5)ncn6C)c(C)c4F)c3n1)C2` [Example 227, 1-((1R,3r,5S)-3-(4-((2-fluoro-3-methyl-4-((3-methyl-3H-imidazo[4,5-b]pyridin-6-yl)oxy)phenyl)amino)pyrido[3,2-d]pyrimidin-6-yl)-8-azabicyclo[3.2.1]octan-8-yl)prop-2-en-1-one], the negative logarithm of the IC50 (pIC50) in data set [1] was 5.42; in data set [2] it was 7.57; in data set [3], 6.86; in data set [5], 5.30. In data set [7], the efflux ratio turned out to be 1.2. Further, the “Assay 7 Pe Ratio” value in data set [8] stood at 5.5.

One may read the pIC50 as −log10 of the IC50, conventionally taken in molar units. Read a high pIC50 as a small IC50.
